Holding throughout (type): cell-based
The target of experiment [1] is T1, ratP2X7 (Rattus norvegicus, UniProt Q64663).
T1 construct: expressed in transfected cells; host or cells: HEK-293
T1 sequence (Q64663 1-595): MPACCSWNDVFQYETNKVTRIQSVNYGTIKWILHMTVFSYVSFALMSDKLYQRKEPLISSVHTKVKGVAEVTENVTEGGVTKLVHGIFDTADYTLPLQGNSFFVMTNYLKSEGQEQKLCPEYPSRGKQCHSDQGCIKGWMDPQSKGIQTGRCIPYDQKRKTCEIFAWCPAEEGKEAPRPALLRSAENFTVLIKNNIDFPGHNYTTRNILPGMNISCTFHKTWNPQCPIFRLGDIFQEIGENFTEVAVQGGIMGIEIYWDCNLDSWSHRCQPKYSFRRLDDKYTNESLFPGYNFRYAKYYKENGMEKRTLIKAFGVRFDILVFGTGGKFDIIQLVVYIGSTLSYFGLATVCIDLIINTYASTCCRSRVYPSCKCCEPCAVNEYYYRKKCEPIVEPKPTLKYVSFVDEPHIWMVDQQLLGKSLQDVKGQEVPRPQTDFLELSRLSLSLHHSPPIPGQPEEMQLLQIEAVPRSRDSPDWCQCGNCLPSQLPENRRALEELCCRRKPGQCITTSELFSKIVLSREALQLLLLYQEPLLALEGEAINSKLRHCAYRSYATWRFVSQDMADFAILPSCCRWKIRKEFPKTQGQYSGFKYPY
Kind of experiment: P2X7 channel calcium-influx assay (Fluo-8, FLIPR TETRA), rat P2X7. The note with it: HEK-293 cells stably transfected with P2X7; Bz-ATP at EC80; low divalent cation buffer; read-out: ratP2X7 (activity range). The procedure:
(§1) Extracellular binding of Bz-ATP to P2X7 receptor opens the channel and allows Ca^2+ influx into the cells. This Ca^2+ entry was measured in HEK-293 cells stably transfected with P2X7 receptor using Screen Quest™ Fluo-8 No Wash Calcium Assay Kit (AAt Bioquest®, cat. 36316). Once inside the cell, the lipophilic blocking groups of Fluo-8 are cleaved by non-specific cell esterases, resulting in a negatively-charged fluorescent dye that stays inside cells. Its fluorescence increases upon binding to calcium. When HEK-293/P2X7 cells are stimulated with Bz-ATP, Ca^2+ enters the cells and the fluorescence of Fluo-8 NW increases. The dye has an absorption spectrum compatible with excitation at 488 nm by argon laser sources and its emission wavelength is in the range of 515-575 nm.
(§2) HEK-293 cells stably transfected with P2X7 receptor were seeded overnight in growth medium at 10,000 to 20,000 cells/well in 384-well plate. 24 hours later, the medium was removed, and the cells were pre-loaded at RT for 1 hour with 20 μL/w of Fluo-8 NW. Then 10 μL/w of test compounds and reference antagonist A438079 at 3×-concentration were injected with the FLIPRTETRA and the kinetic response over a period of five minutes was monitored. A second injection of 15 μL/w of 3× reference activator (Bz-ATP at EC80) was performed with the FLIPR TETRA and the signal of the emitted fluorescence was recorded for additional three minutes. All the experiment was carried out in a Low Divalent Cation Assay Buffer (0.3 mM Ca^2+ and 0 mM Mg^2+). The effect of the test compounds was measured as percent inhibition vs the reference antagonist and IC50 values were calculated accordingly. Here are reported the potency ranges as A, B, C and D, where A is <200 nM; B is 200 nM-1 μM, C is 1-10 μM, D is 10-30 μM.

The target of experiment [2] is T2, mouseP2X7 (Mus musculus, UniProt Q9Z1M0).
T2 construct: expressed in transfected cells; host or cells: HEK-293
T2 sequence (Q9Z1M0 1-595): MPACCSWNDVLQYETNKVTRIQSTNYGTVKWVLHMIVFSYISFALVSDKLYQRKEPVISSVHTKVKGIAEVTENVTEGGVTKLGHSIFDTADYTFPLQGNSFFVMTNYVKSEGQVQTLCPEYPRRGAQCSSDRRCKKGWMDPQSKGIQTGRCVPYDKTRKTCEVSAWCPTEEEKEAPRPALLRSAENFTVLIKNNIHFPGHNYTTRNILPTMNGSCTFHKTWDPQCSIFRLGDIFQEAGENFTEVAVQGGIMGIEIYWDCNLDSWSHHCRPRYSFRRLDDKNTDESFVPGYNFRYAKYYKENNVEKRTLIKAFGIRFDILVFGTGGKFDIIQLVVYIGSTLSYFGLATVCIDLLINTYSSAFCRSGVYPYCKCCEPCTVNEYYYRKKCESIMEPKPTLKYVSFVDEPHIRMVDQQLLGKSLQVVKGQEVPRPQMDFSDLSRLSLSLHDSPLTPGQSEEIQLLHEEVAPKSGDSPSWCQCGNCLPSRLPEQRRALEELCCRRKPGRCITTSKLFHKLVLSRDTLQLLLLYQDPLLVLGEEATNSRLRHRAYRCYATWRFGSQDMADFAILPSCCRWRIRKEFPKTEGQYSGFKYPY
As to the kind of experiment: P2X7 channel calcium-influx assay (Fluo-8, FLIPR TETRA), mouse P2X7. The note with it: HEK-293 cells stably transfected with P2X7; Bz-ATP at EC80; low divalent cation buffer; read-out: mouseP2X7 (activity range). The procedure: as §1, §2

In experiment [3] the target is T3, humanP2X7 (Homo sapiens, UniProt Q99572).
T3 construct: expressed in transfected cells; host or cells: HEK-293
T3 sequence (Q99572 1-595): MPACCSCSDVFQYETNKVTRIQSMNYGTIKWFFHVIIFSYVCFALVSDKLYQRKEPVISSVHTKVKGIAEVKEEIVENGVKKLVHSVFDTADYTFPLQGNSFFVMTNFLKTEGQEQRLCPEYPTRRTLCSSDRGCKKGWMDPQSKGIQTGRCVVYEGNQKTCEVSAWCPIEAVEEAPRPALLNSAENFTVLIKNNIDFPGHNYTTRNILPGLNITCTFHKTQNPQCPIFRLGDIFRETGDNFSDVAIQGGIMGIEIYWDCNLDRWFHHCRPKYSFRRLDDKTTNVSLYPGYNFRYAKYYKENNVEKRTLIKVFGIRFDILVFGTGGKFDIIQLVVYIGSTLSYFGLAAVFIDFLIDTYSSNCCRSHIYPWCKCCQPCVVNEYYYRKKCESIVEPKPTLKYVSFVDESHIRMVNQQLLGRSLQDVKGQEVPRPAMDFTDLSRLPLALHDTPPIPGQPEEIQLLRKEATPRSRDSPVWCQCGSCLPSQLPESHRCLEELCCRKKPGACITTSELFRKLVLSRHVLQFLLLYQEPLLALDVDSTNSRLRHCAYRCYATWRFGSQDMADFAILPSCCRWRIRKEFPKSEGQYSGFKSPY
Kind of experiment: P2X7 channel calcium-influx assay (Fluo-8, FLIPR TETRA), human P2X7. The note with it: HEK-293 cells stably transfected with P2X7; Bz-ATP at EC80; low divalent cation buffer; read-out: humanP2X7 (activity range). How it is done:
as §1, §2

Experiment [4] deals with T4, human P2X7 channel (Homo sapiens, UniProt Q99572).
T4 construct: expressed in transfected cells; host or cells: HEK-293
T4 sequence (Q99572 1-595): T3 sequence (Q99572 1-595)
As to the kind of experiment: human P2X7 channel assay by automated patch-clamp (QPatch 16X). The note with it: HEK-293 cells expressing P2X7; current evoked by 100 microM BzATP; whole-cell, held at -80 mV; read-out: human Q-Patch (activity range). How it is done: In order to directly monitor the block of P2X7 channel, an electrophysiological assay was developed and implemented on the QPatchl6X automated electrophysiology instrument.
HEK-293 cells expressing the P2X7 channels were cultured in modified EMEM.
72 hours before experiment, 5 million cells were seeded onto T225 flasks. Just before the experiment cells were washed twice, detached from the flask with trypsin-EDTA, re-suspended in the suspension solution and placed on the QPatch 16x.
The compounds (20 mM in a 100% DMSO) stored at −20° C. were prepared the day of the experiment (a first dilution 1:20 in 100% DMSO to prepare a 1 mM stock solution, then a 1 microM solution in external solution+a serial dilution 1:10).
The standard whole-cell voltage clamp experiments were performed at room temperature. From these experiments the multihole technology was used and the data were sampled at 2 KHz.
The intracellular solution contained (mM) 135 CsF, 10 NaCl, 1 EGTA, 10 HEPES, (pH 7.2 with CsOH) whereas the extracellular contained (mM) 145 NaCl, 4 KCl, 0.5 MgCl2, 1 CaCl2, 10 HEPES, 10 Glc (pH 7.4 with NaOH).
After establishment of the seal and the passage in the whole cell configuration, the cells were held at −80 mV. The P2XR7 current was evoked by applying 100 microM of BzATP alone (4 times) and then in the presence increasing concentrations of the compound under investigation (1, 10, 100 and 1000 nM).
The pre-incubation periods 5 to 8 contain increasing concentrations of the compound of interest (1, 10, 100 and 1000 nM), as illustrated in FIGURE (application protocol).
The maximal inward current evoked by BzATP in absence or presence of increasing concentrations of the compounds under investigation was measured and normalized. The potential […] effect was measured as % of control and as IC50 determined fitting the dose-response curves data with the following equation:
Here are reported the potency ranges as A, B, C and D, where A is <10 nM; B is 10 nM-100 nM, C is 0.1-1 μM, D is 1-10 μM.
Background: The patch-clamp technique gives a direct electrical read-out from membranes.

On to `Cn1nc(Cc2c(F)cccc2Cl)n(Cc2ccc(F)cc2)c1=O` [Example 1, 5-(2-chloro-6-fluorobenzyl)-4-(4-fluorobenzyl)-2-methyl-2,4-dihydro-3H-1,2,4-triazol-3-one], for which the IC50 in experiment [1] lay within 200 to 1000 nM; in experiment [2] it was 1000 to 10000 nM; in experiment [3] it was 1000 to 10000 nM.

On to `Cn1nc(Cc2c(F)cccc2Cl)n(CC2CCCCC2)c1=O` [Example 2, 5-(2-chloro-6-fluorobenzyl)-4-(cyclohexylmethyl)-2-methyl-2,4-dihydro-3H-1,2,4-triazol-3-one], for which the IC50 in experiment [4] is less than 10 nM; in experiment [1] it was less than 200 nM; in experiment [2], 200 to 1000 nM; in experiment [3], 200 to 1000 nM.

In the case of `Cn1nc(Cc2c(F)cccc2Cl)n(CC2CCC(F)(F)C2)c1=O` (stereo not shown) [Example 4, 5-(2-chloro-6-fluorobenzyl)-4-((3,3-difluorocyclopentyl)methyl)-2-methyl-2,4-dihydro-3H-1,2,4-triazol-3-one], the IC50 was 200 to 1000 nM in experiment [1], 1000 to 10000 nM in experiment [2] and 200 to 1000 nM in experiment [3].

Take `Cn1nc(Cc2c(F)cccc2Cl)n(CC2CCC(F)CC2)c1=O` (stereo not shown) [Example 6, 5-(2-chloro-6-fluorobenzyl)-4-((4-fluorocyclohexyl)methyl)-2-methyl-2,4-dihydro-3H-1,2,4-triazol-3-one]: the IC50 in experiment [1] was less than 200 nM; in experiment [2], 200 to 1000 nM; in experiment [3], 200 to 1000 nM.

Turning to `Cn1nc(Cc2c(F)cccc2Cl)n(CC2CCC(C(F)(F)F)CC2)c1=O` (stereo not shown) [Example 7, 5-(2-chloro-6-fluorobenzyl)-2-methyl-4-((4-(trifluoromethyl)cyclohexyl)methyl)-2,4-dihydro-3H-1,2,4-triazol-3-one], the IC50 is less than 200 nM in experiment [1], 200 to 1000 nM in experiment [2] and less than 200 nM in experiment [3].

Take `Cn1nc(Cc2ccc(F)cc2Cl)n(Cc2ccc(F)cc2)c1=O` [Example 8, 5-(2-chloro-4-fluorobenzyl)-4-(4-fluorobenzyl)-2-methyl-2,4-dihydro-3H-1,2,4-triazol-3-one]: the IC50 in experiment [1], in experiment [2] and in experiment [3] was 1000 to 10000 nM in each case.

Regarding `Cn1nc(Cc2ccc(F)cc2Cl)n(CC2CCCCC2)c1=O` [Example 9, 5-(2-chloro-4-fluorobenzyl)-4-(cyclohexylmethyl)-2-methyl-2,4-dihydro-3H-1,2,4-triazol-3-one], the IC50 in experiment [1] was less than 200 nM; in experiment [2] it was 200 to 1000 nM; in experiment [3], 200 to 1000 nM.

With `Cn1nc(Cc2ccc(F)cc2Cl)n(CC2CCC(F)(F)C2)c1=O` (stereo not shown) [Example 10, 5-(2-chloro-4-fluorobenzyl)-4-((3,3-difluorocyclopentyl)methyl)-2-methyl-2,4-dihydro-3H-1,2,4-triazol-3-one], the IC50 in experiment [1] is 200 to 1000 nM; in experiment [2], 1000 to 10000 nM; in experiment [3] it was 10000 to 30000 nM.

On to `O=c1n(CC(F)(F)F)nc(Cc2ccccc2Cl)n1CC1CCCCCC1` [Example 54, 5-[(2-chlorophenyl)methyl]-4-(cycloheptylmethyl)-2-(2,2,2-trifluoroethyl)-2,4-dihydro-3H-1,2,4-triazol-3-one], for which the IC50 is less than 200 nM in experiment [1], 200 to 1000 nM in experiment [2] and 200 to 1000 nM in experiment [3].

Take `Cn1nc(CC2CCCCCC2)n(Cc2c(F)cccc2Cl)c1=O` [Example 59, 4-[(2-chloro-6-fluorophenyl)methyl]-5-(cycloheptylmethyl)-2-methyl-2,4-dihydro-3H-1,2,4-triazol-3-one]: the IC50 in experiment [1] is less than 200 nM; in experiment [2], 200 to 1000 nM; in experiment [3], 200 to 1000 nM.

As to `CCn1nc(Cc2ccccc2Cl)n(CC2CCCCCC2)c1=O` [Example 64, 5-[(2-chlorophenyl)methyl]-4-(cycloheptylmethyl)-2-ethyl-2,4-dihydro-3H-1,2,4-triazol-3-one], the IC50 was less than 200 nM in experiment [1], 200 to 1000 nM in experiment [2] and less than 200 nM in experiment [3].

Turning to `Cn1nc(CC2CCC(F)(F)CC2)n(Cc2c(F)cccc2Cl)c1=O` [Example 71, 4-[(2-chloro-6-fluorophenyl)methyl]-5-[(4,4-difluorocyclohexyl)methyl]-2-methyl-2,4-dihydro-3H-1,2,4-triazol-3-one], the IC50 in experiment [1] lay within 200 to 1000 nM; in experiment [2], 1000 to 10000 nM; in experiment [3], 200 to 1000 nM.
